Test results: patent US10065943B2, “Pyrrolidine derivatives as angiotensin II type 2 antagonists” (NOVARTIS AG, priority 2015, dated 2018)
pKi: −log10 of the molar value. Where a SMILES comes first, the peptide text is derived from it. Side-chain parts run from the residue outwards. The star is where a group is joined. Nicotinoyl = O=C(c1cccnc1)*; Cbz = O=C(OCc1ccccc1)*

molecular target: T1, human AT2 receptor (Homo sapiens, UniProt P50052); test: AT2 receptor binding ([125I]CGP 42112A displacement, CHO-K1 membranes); settings: [125I]CGP 42112A 0.05 nM, membranes of CHO-K1 cells expressing human AT2 receptor; Ki from IC50 by Cheng-Prussoff equation; read-out: Ki
T1 construct: membranes prepared in house
T1 sequence (P50052 1-363): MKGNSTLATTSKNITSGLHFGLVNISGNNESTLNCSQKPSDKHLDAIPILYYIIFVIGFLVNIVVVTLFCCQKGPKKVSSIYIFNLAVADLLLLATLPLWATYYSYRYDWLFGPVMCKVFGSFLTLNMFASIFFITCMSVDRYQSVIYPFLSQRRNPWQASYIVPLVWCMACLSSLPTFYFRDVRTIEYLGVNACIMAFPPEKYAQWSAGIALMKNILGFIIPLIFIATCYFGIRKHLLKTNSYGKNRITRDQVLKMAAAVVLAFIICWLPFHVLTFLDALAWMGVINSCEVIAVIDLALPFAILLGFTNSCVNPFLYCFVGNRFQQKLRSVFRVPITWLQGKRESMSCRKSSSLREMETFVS
Excerpt: Reagents were purchased from Sigma-Aldrich, unless otherwise specified. Dialyzed fetal bovine serum (FBS) was from Life Technologies (cat. no. 10073772). Valiscreen® human angiotensin AT2 receptor cell line (cat. no. ES-070-C), [^125I]CGP 42112A (cat. no. NEX324025UC) and MicroScint™ 40 (cat. no. 6013641) were purchased from PerkinElmer. CGP 42112A (cat. no. 2569) and PD 123,319 ditrifluoroacetate (cat. no. 1361) were from Tocris Biosciences.
• 1. Growth medium • EX-CELL® CHO DHFR^− medium • 10% FBS, dialysed • 1 mM sodium pyruvate • 2 mM L-glutamine • 2. Harvesting buffer • PBS • 2 mM EDTA • 3. Suspension buffer • 50 mM Tris-HCl, pH 7.4 • 10 mM EDTA • 4. Resuspension buffer • 50 mM Tris-HCl, pH 7.4 • 0.1 mM EDTA • 0.1% sucrose • 5. Binding assay buffer • 50 mM Tris-HCl, pH 7.4 • 5 mM MgCl2 • 1 mM EDTA • 0.1% gelatin • 6. Wash buffer • 50 mM Tris-HCl, pH 7.4 Procedure for Membrane Preparation • Valiscreen® CHO-K1 cells stably expressing the human AT2 receptor were cultured in growth medium. • Cells were seeded into T-175 flasks and grown to 70-80% confluence. • Medium was removed from confluent flasks and cells were washed with warm PBS. • Cells were harvested by incubating with harvesting buffer for 10 min at 37° C., and then transferred to a centrifuge tube on ice. • Cells were centrifuged at 200 g for 5 min at 4° C. • Cell pellets were homogenised in ice-cold suspension buffer. • Homogenates were centrifuged at 40,000 g for 15 min at 4° C. • Pellets were resuspended in ice-cold resuspension buffer and centrifuged at 40,000 g for 15 min at 4° C. • Final pellets were homogenised in ice-cold resuspension buffer. • Protein concentrations were determined by BCA assay method with BSA as standard. Compound Preparation
Compounds were prepared from 10 mM stock solutions in 100% DMSO. Dilutions were made using electronic multichannel pipettes.
• Compounds dilutions were prepared in 100% DMSO at 100× final assay concentration. • Compounds were diluted in 100% DMSO to the appropriate maximal concentration. • 30 μL compound was added to row A. • 21.6 μL of 100% DMSO was added to rows B-H. • Transfer 10 μL from row A into row B (half log dilution). • Transfer 10 μL from row B into row C (half log dilution). • Transfer 10 μL from row C into row D (half log dilution). • Transfer 10 μL from row D into row E (half log dilution). • Transfer 10 μL from row E into row F (half log dilution). • Transfer 10 μL from row F into row G (half log dilution). • Transfer 10 μL from row G into row H (half log dilution). Working Plate Preparation (96-Well Plate) • Compounds were diluted 10-fold in assay buffer. • 10 μL compound solution from dose plate was transferred to corresponding well of working plate. • 90 μL assay buffer was added to the wells of working plate. • Working solutions contained 10% DMSO in assay buffer (1% DMSO final assay concentration). Controls • Total binding (high control) was determined in the absence of unlabelled ligand. A solution of 10% DMSO in assay buffer was prepared. • Non-specific binding (low control) was determined in the presence of a vast excess (10 μM) of PD 123,319. 1 mM stock solution of PD 123,319 in water was diluted 10-fold with 10% DMSO in assay buffer. Assay Plate Preparation (96-Well Plate)
15 μL compound solution was transferred to duplicate wells of assay plate. 5 compounds were tested per plate. 15 μL control solutions were transferred to columns 1 and 12 of assay plate.

pKi | Structure (SMILES)
8.57 | O=C(O)[C@@H]1C[C@H](N2CCCCc3ccccc32)CN1C(=O)C(c1ccccc1)c1ccccc1 [Compound 1, (2S,4S)-1-(2,2-Diphenylacetyl)-4-(2,3,4,5-tetrahydro-1H-benzo[b]azepin-1-yl)pyrrolidine-2-carboxylic acid]
8.06 | O=C(O)[C@@H]1C[C@H](N2CCCCCc3ccccc32)CN1C(=O)C(c1ccccc1)c1ccccc1 [Compound 13, (2S,4S)-1-(2,2-Diphenylacetyl)-4-(3,4,5,6-tetrahydrobenzo[b]azocin-1(2H)-yl)pyrrolidine-2-carboxylic acid]
7.64 | O=C(O)[C@@H]1C[C@H](N2CCCCc3cc(Cl)ccc32)CN1C(=O)C(c1ccccc1)c1ccccc1 [Compound 6, (2S,4S)-4-(7-Chloro-2,3,4,5-tetrahydro-1H-benzo[b]azepin-1-yl)-1-(2,2-diphenylacetyl)pyrrolidine-2-carboxylic acid]
8.70 | O=C(O)[C@@H]1C[C@H](N2CCCOc3ccccc32)CN1C(=O)C(c1ccccc1)c1ccccc1 [Compound 7, (2S,4S)-4-(3,4-dihydrobenzo[b][1,4]oxazepin-5(2H)-yl)-1-(2,2-diphenylacetyl)pyrrolidine-2-carboxylic acid]
6.83 | O=C(O)[C@@H]1C[C@H](N2CCOCc3ccccc32)CN1C(=O)C(c1ccccc1)c1ccccc1 [Compound 10, (2S,4S)-4-(2,3-Dihydrobenzo[e][1,4]oxazepin-1(5H)-yl)-1-(2,2-diphenylacetyl)pyrrolidine-2-carboxylic acid]
6.44 | O=C(O)[C@@H]1C[C@H](N2Cc3ccccc3C2)CN1C(=O)C(c1ccccc1)c1ccccc1 [Compound 20, (2S,4S)-1-(2,2-Diphenylacetyl)-4-(isoindolin-2-yl)pyrrolidine-2-carboxylic acid]
7.82 | O=C(NS(=O)(=O)C1CC1)[C@@H]1C[C@H](N2CCCCc3cc(F)c(F)cc32)CN1C(=O)C(c1ccccc1)c1ccccc1 [Compound 41, (2S,4S)—N-(Cyclopropylsulfonyl)-4-(7,8-difluoro-2,3,4,5-tetrahydro-1H-benzo[b]azepin-1-yl)-1-(2,2-diphenylacetyl)pyrrolidine-2-carboxamide]
7.00 | O=C(O)[C@@H]1C[C@H](N2CCOc3ccccc3C2)CN1C(=O)C(c1ccccc1)c1ccccc1 [Compound 19, (2S,4S)-4-(2,3-Dihydrobenzo[f][1,4]oxazepin-4(5H)-yl)-1-(2,2-diphenylacetyl)pyrrolidine-2-carboxylic acid]
7.47 | Cc1ccc2c(c1)N([C@H]1C[C@@H](C(=O)O)N(C(=O)C(c3ccccc3)c3ccccc3)C1)CCCC2 [Compound 3, (2S,4S)-1-(2,2-Diphenylacetyl)-4-(8-methyl-2,3,4,5-tetrahydro-1H-benzo[b]azepin-1-yl)pyrrolidine-2-carboxylic acid]
7.44 | O=C(C(c1ccccc1)c1ccccc1)N1C[C@@H](N2CCCCc3ccccc32)C[C@H]1c1nn[nH]n1 [Compound 35, 2,2-Diphenyl-1-((2S,4S)-4-(2,3,4,5-tetrahydro-1H-benzo[b]azepin-1-yl)-2-(2H-tetrazol-5-yl)pyrrolidin-1-yl)ethan-1-one]
7.77 | CN(C)S(=O)(=O)NC(=O)[C@@H]1C[C@H](N2CCCCc3ccccc32)CN1C(=O)C(c1ccccc1)c1ccccc1 [Compound 44, (2S,4S)—N—(N,N-Dimethylsulfamoyl)-1-(2,2-diphenylacetyl)-4-(2,3,4,5-tetrahydro-1H-benzo[b]azepin-1-yl)pyrrolidine-2-carboxamide]
8.85 | O=C(O)[C@@H]1C[C@@H](N2CCCOc3cc(F)c(F)cc32)CN1C(=O)C(c1ccccc1)c1ccccc1 [Compound 24, (2S,4R)-4-(7,8-Difluoro-3,4-dihydrobenzo[b][1,4]oxazepin-5(2H)-yl)-1-(2,2-diphenylacetyl)pyrrolidine-2-carboxylic acid]
7.10 | O=C(O)[C@@H]1C[C@H](N2CCCc3ccccc3C2)CN1C(=O)C(c1ccccc1)c1ccccc1 [Compound 18, (2S,4S)-1-(2,2-Diphenylacetyl)-4-(1,3,4,5-tetrahydro-2H-benzo[c]azepin-2-yl)pyrrolidine-2-carboxylic acid]
8.64 | O=C(O)[C@@H]1C[C@H](N2CCCOc3cc(F)c(F)cc32)CN1C(=O)C(c1ccccc1)c1ccccc1 [Compound 21, (2S,4S)-4-(7,8-difluoro-3,4-dihydrobenzo[b][1,4]oxazepin-5(2H)-yl)-1-(2,2-diphenylacetyl)pyrrolidine-2-carboxylic acid]
8.31 | O=C(O)[C@@H]1C[C@H](N2CCCCc3sccc32)CN1C(=O)C(c1ccccc1)c1ccccc1 [Compound 11, (2S,4S)-1-(2,2-Diphenylacetyl)-4-(5,6,7,8-tetrahydro-4H-thieno[3,2-b]azepin-4-yl)pyrrolidine-2-carboxylic acid]
7.62 | O=C(O)[C@@H]1C[C@H](N2CCCc3ccccc32)CN1C(=O)C(c1ccccc1)c1ccccc1 [Compound 14, (2S,4S)-4-(3,4-Dihydroquinolin-1(2H)-yl)-1-(2,2-diphenylacetyl)pyrrolidine-2-carboxylic acid]
8.06 | COc1ccc2c(c1)CCCCN2[C@H]1C[C@@H](C(=O)O)N(C(=O)C(c2ccccc2)c2ccccc2)C1 [Compound 4, (2S,4S)-1-(2,2-Diphenylacetyl)-4-(7-methoxy-2,3,4,5-tetrahydro-1H-benzo[b]azepin-1-yl)pyrrolidine-2-carboxylic acid]
8.39 | O=C(O)[C@@H]1C[C@@H](N2CCCOc3ccccc32)CN1C(=O)C(c1ccccc1)c1ccccc1 [Compound 26, (2S,4R)-4-(3,4-Dihydrobenzo[b][1,4]oxazepin-5(2H)-yl)-1-(2,2-diphenylacetyl)pyrrolidine-2-carboxylic acid]
8.55 | O=C(O)[C@@H]1C[C@H](N2CCCCc3cc(F)c(F)cc32)CN1C(=O)C(c1ccccc1)c1ccccc1 [Compound 27, (2S,4S)-4-(7,8-Difluoro-2,3,4,5-tetrahydro-1H-benzo[b]azepin-1-yl)-1-(2,2-diphenylacetyl)pyrrolidine-2-carboxylic acid]
7.93 | C[C@@]1(C(=O)O)C[C@H](N2CCCCc3cc(F)c(F)cc32)CN1C(=O)C(c1ccccc1)c1ccccc1 [Compound 31, (2S,4S)-4-(7,8-Difluoro-2,3,4,5-tetrahydro-1H-benzo[b]azepin-1-yl)-1-(2,2-diphenylacetyl)-2-methylpyrrolidine-2-carboxylic acid]
7.09 | O=C(O)[C@@H]1C[C@H](N2CCCCc3cccnc32)CN1C(=O)C(c1ccccc1)c1ccccc1 [Compound 12, (2S,4S)-1-(2,2-Diphenylacetyl)-4-(5,6,7,8-tetrahydro-9H-pyrido[2,3-b]azepin-9-yl)pyrrolidine-2-carboxylic acid]

same assay, conditions: standard compounds, mean±S.E.M.; read-out: Dissociation constants (pKi) (converted)

Ki [µM] | Structure (SMILES)
0.000178 | CC[C@H](C)[C@H](NC(=O)[C@@H]1CCCN1C(=O)[C@H](Cc1c[nH]cn1)NC(=O)[C@H](CCCCNC(=O)[C@H](CCCN=C(N)N)NC(=O)OCc1ccccc1)NC(=O)[C@H](Cc1ccc(O)cc1)NC(=O)c1cccnc1)C(=O)O [CGP 42112A, reference compound] (Nicotinoyl-YK([Arg-Cbz])HPI-OH)
